Laboratory results published in patent US9689040B2, “Selective inhibitors of tumor-initiating cells” (Children's Medical Center Corporation, priority 2011, dated 2017).

Legend:
BPLER cells [1] = assay: Cell viability after drug treatment (CellTiterGlo / Trypan-Blue); format: cell-based, human; conditions: 24 hr; for relative viability of BPLER and HMLER cells: CellTiterGlo (FIG. 14); for sensitivity of BPLER relative to HMLER cells (viability): increasing doses
BPLER cells [2] = assay: Apoptosis (Annexin V/PI flow cytometry, caspase 3 and PARP cleavage immunoblot); format: cell-based, human; conditions: 24 hours
Description: BPLER were used as control. […] The percentage of double-positive cells is indicated.
To further define factors underlying such properties of BPLER cells, we first determined the molecular mechanism by which proteasome inhibition affects the growth of these cells.
Immunoblot was performed as described^41. Primary antibodies were as follows: cleaved Caspase 3 (Cell Signaling, rabbit polyclonal, 1:1000), PARP1 (Santa Cruz, rabbit polyclonal, 1:500), MCL1 (Cell Signaling, Rabbit polyclonal, 1:1000), Bim (Santa Cruz, rabbit polyclonal, 1:500), Bik (Cell Signaling, rabbit polyclonal, 1:1000), Puma (Cell Signaling, rabbit polyclonal, 1:1000), Noxa (Calbiochem, mouse monoclonal, 1:500), Bid (Santa Cruz, rabbit polyclonal, 1:500), Bad (Santa Cruz, rabbit polyclonal, 1:500). Antibodies were diluted in 5% milk in TBS-T and incubated O.N. at 4° C. Secondary mouse and rabbit HRP-conjugated antibodies were from Amersham. Protein signal was detected using the ECL Plus kit (Amersham). For flow cytometry, cells were stained as previously described^33, using the following fluorescent-conjugated antibodies: CD44 (BD Biosciences), CD24 (BD Biosciences), CD326 (ESA, Biolegend), Annexin V (Invitrogen). For immunofluorescence microscopy, cells were fixed in 2% PFA for 10 min, permeabilized with 1% Triton X in PBS for 5 min, and incubated with primary antibodies in 0.5% Triton X, 1% FBS in PBS for 30 min at RT. Antibodies were: CK18 (Santa Cruz, mouse monoclonal, 1:100) and CK14 (Millipore, mouse monoclonal, 1:100). After washing the cells were stained sequentially with AlexaFluor647-conjugated secondary antibody (Invitrogen, 1:200) and DAPI (Sigma, 1:5000). For immunohistochemistry, BPLER tumor sections were prepared from paraffin-embedded tissues, deparaffinized and treated with 10% citrate buffer for 15 min. Staining was performed using a BIOGENEX IHC DAB kit (Biogenex) following the manufacturer's protocol. Primary antibodies were: CK14 (Millipore, mouse monoclonal, 1:100), CK5 (Millipore, mouse monoclonal, 1:100), HH3 (Cell Signaling, rabbit polyclonal, 1:100), ER (Abcam, mouse monoclonal, 1:100), Vimentin (Invitrogen, mouse monoclonal 1:100), Ki67 (Millipore, mouse monoclonal, 1:100).

[3] = tested on: BPE, HMLER and BPLER cells; assay: Cell cycle distribution (propidium iodide DNA staining); conditions: BPE, HMLER and BPLER, 24 hours
BPE cells = conditions: at the indicated dose
HMLER cells = assay: Genome-wide siRNA lethality screen (primary screen), CellTiterGlo viability; format: cell-based, human; conditions: siRNA pool against the gene
BPLER cells [4] = assay: Secondary (cherry-pick) screen with the 4 individual siRNAs of each pool
BPLER cells [5] = assay: Genome-wide siRNA lethality screen (primary screen), CellTiterGlo viability; format: cell-based, human

COc1ccc([C@@H]2CC(=O)c3c(O)cc(O)cc3O2)cc1O [Hesperetin]
relative viability of BPLER and HMLER cells (BPLER cells [1]): not active

CC(=O)N(O)CCCCCNC(=O)CCC(=O)N(O)CCCCCNC(=O)CCC(=O)N(O)CCCCCN [Deferoxamine]
relative viability of BPLER and HMLER cells (BPLER cells [1]): not active

O=C(O)C(=O)CBr [BRPA, 3-bromo-pyruvic acid]
sensitivity of BPLER relative to HMLER cells (viability) (BPLER cells [1]): more sensitive

COC(=O)Nc1nc2ccc(C(=O)c3cccs3)cc2[nH]1 [nocodazole]
activation of apoptosis by mitotic arrest (BPLER cells [2]): sufficient to activate apoptosis in BPLER cells
mitotic arrest [3]: underwent mitotic arrest

NC(N)=NOCC[C@H](N)C(=O)O [L-cavananine]
relative viability of BPLER and HMLER cells (BPLER cells [1]): not active

O=C(CCCCCCC(=O)Nc1ccccc1)NO [Vorinostat, N′-hydroxy-N-phenyl-octanediamide]
BPE viability (BPE cells): no effect on BPE viability
sensitivity of BPLER relative to HMLER cells (viability) (BPLER cells [1]): selectively lethal for BPLER compared to HMLER

COc1cccc2c1C(=O)c1c(O)c3c(c(O)c1C2=O)C[C@@](O)(C(=O)CO)C[C@@H]3O[C@H]1C[C@H](N)[C@H](O)[C@H](C)O1 [doxorubicin]
sensitivity of BPLER relative to HMLER cells (viability) (BPLER cells [1]): responded similarly

COc1ccc2cc(CCC(C)=O)ccc2c1 [Nabumetone]
relative viability of BPLER and HMLER cells (BPLER cells [1]): not active

B1: TMED3 (nucleic acid, listed as Homo sapiens)
DNA: ATCCCCTTACATCCTCCTAGGACCCGGTCGGTAGTCGTCGCCCCAGCCCGCCGGGGGCGCAGCGCCCGAGCCGCGGCCCTCGAGACGGGACCGAGAGCATCATGGGCAGCACTGTCCCGCGCTCCGCCTCCGTGCTGCTTCTGCTGCTGCTCCTGCGCCGGGCCGAGCAGCCCTGCGGGGCCGAGCTCACCTTCGAGCTGCCGGACAACGCCAAGCAGTGCTTCCACGAGGAGGTGGAGCAGGGCGTGAAGTTCTCCCTGGATTACCAGGTCATCACTGGAGGCCACTACGATGTTGACTGCTATGTAGAGGACCCCCAGGGGAACACCATCTACAGAGAAACGAAGAAGCAGTACGACAGCTTCACGTACCGGGCTGAAGTCAAGGGCGTTTATCAGTTTTGCTTCAGTAATGAGTTTTCCACCTTCTCTCACAAGACCGTCTACTTTGACTTTCAAGTGGGCGATGAGCCTCCCATTCTCCCAGACATGGGGAACAGGGTCACAGCTCTCACCCAGATGGAGTCCGCCTGCGTGACCATCCATGAGGCTCTGAAAACGGTGATTGACTCCCAGACGCATTACCGGCTGCGGGAGGCCCAGGACCGGGCCCGAGCGGAAGACCTTAATAGCCGAGTCTCTTACTGGTCTGTTGGCGAGACGATTGCCCTGTTCGTGGTCAGCTTCAGTCAGGTGCTACTGTTGAAAAGCTTCTTCACAGAAAAACGACCCATCAGCAGGGCAGTCCACTCCTAGCCCCGGCATCCTGCTCTAGGGCCCCTCATGCCCCAGGCTGGAGCAGCTCTCCTAGGTCACAGCCTGCTGGGCTGGGTCGCGTAGCCCAGGGTGGAGGCAGAACGATGCTGCTGTGGTAGCCCTTTGCCTTTCATGCCCATGCTTGATTCTTGCACCTCAGCAGCTGAAGGTCTCAGAGACCAGTAATCAGAAGGCATCCGACTGCATTAAGTGTGCAGCGCTGAAAAGACATTTACAACTAGGCCAGGGATTAGCCACTGTGGGAGGGTGGACAGGCAATGGTTCAGTGGCCTGGCTGTTGGCAGGAACTCCAAGTGCCCAGGCCTCTTGGGCAGCTTAGGGCCCTGCCTCTGTTTCATGATGCATGGGTCATTTGTCTTGGGTGTCCTATCCCATATGGAGAAGAAAGGGGCTCTAAGTTCTGGCTCTTCTTTCTTTGGGGTTCTCTGTACCTGAGGAAACCAGGCCCTGGGTGACTTTGCAGATCTGCTCACCCTCGGTGAGCAACAGTGTCAGCCATGCAAGCAGGACAGAATGGTGACTGGGTGCCCTTGGTGAGCTGTGTATTTCCTAGGAGGTAGAAAACTGTGGGAAACTGTGGCTAATAAAAACTAAGTGTGAGCGTCCTGGAGAAAAAAAAAAAAAAAAAAAAAAAAAAAAAAAAAAAAAAAAAAAAAAAA
MAD_HMLER (HMLER cells; primary screen, HMLER cells, MAD score): −1.28
Fold_HMLER (HMLER cells; primary screen, HMLER cells, fold viability): 0.80
MAD HMLER (HMLER cells; MAD score of viability in HMLER cells): −1.28
Fold HMLER (HMLER cells; fold viability in HMLER cells): 0.80
Cherry_Score (BPLER cells [4]; secondary cherry-pick screen, 4 individual siRNAs of each pool): 2
Cherry Score (BPLER cells [4]; secondary screen with the 4 individual siRNAs of each pool): 2
Ratio BPLER/HMLER (BPLER cells [5]; ratio of Fold_BPLER to Fold_HMLER): 0.68
Ratio BPLER/HMLER (BPLER cells [5]; ratio of fold viability BPLER/HMLER): 0.68
MAD BPLER (BPLER cells [5]; siRNA pool against the gene, MAD score of viability in BPLER cells): −2.93
Fold BPLER (BPLER cells [5]; siRNA pool against the gene, fold viability in BPLER cells): 0.537
